Columns and labels:
Format in all cases: ADME, organism-based
[1] = Volume of distribution at steady state in rat at 1 mg/kg, iv or 2 mg/kg, po by LC/MS/MS analysis; conditions: in vivo, read-out: Vdss
[2] = Oral bioavailability in rat at 2 mg/kg by LC/MS/MS analysis; conditions: in vivo
[3] = Clearance in rat at 1 mg/kg, iv or 2 mg/kg, po by LC/MS/MS analysis; conditions: in vivo
[4] = Dose normalized AUC in rat at 2 mg/kg, po by LC/MS/MS analysis; conditions: in vivo
[5] = Half life in rat at 1 mg.kg, iv or 2 mg/kg, po by LC/MS/MS analysis; conditions: in vivo

Row | Vd [1] [L/kg] | bioavailability [2] [%] | clearance [3] [mL/min/kg] | AUC/dose [4] [µM·kg·h/mg] | half-life [5] [h] | Compound
1 | 4.1 | 65 | 41 | 0.67 | 1.5 | CC[C@](CO)(c1ccc(Cl)cc1)n1ccc2c(NS(C)(=O)=O)cccc21
2 | 2.8 | 21 | 67 | 0.13 | 0.6 | CC[C@](C(=O)NC)(c1ccc(Cl)cc1)n1ccc2c(NS(C)(=O)=O)cccc21
